These are literature values, as cited in patent publication US20130136704A1, “P-MENTHANE-3,8-DIOL ISOMER MIXTURE, COMPOSITION COMPRISING THE SAME, AND PRODUCTS COMPRISING THE MIXTURE OR COMPOSITION” (TAKASAGO INTERNATIONAL CORPORATION, priority 2011, published 2013).

For this data set the following is noted: Patent Literature 2.

On to `CC1CCC(C(C)(C)O)C(O)C1` (stereo not shown) [p-menthane-3,8-diol], for which the “concentration of p-menthane-3,8-diol in solution at which it is in a supersaturation state and crystals precipitate” value was no less than 60%.
